Measurements: patent publication US20250118786A1, “LONG-LIVED REDOX-ACTIVE MOLECULES WITH LOW REDOX POTENTIAL” (President and Fellows of Harvard College, priority 2021, published 2025)
Like-named read-outs stand apart in the source and are kept apart here.

Columns and labels:
[1] = Solubility in water and salt solutions; assay type: physicochemical
[2] = Cyclic voltammetry (three-electrode system); assay type: physicochemical
Experimental: A glassy carbon (BASi, 3 mm diameter) working electrode, an Ag/AgCl reference electrode (BASi, 3 M NaCl solution), and a graphite counter electrode were used in the three-electrode system for all CV tests. The scan rates for CV tests were 10, 20, 50, 100, and 200 mV s^−1. The diffusion coefficient D was calculated based on the Randles-Sevcik equation: Ip=269000×n^1.5 AD^0.5v^0.5C, where Ip is the peak current in amps, n is the number of electrons involved (n=2 for 2,6-N-TSAQ) in the redox reaction, A is the active surface area (0.0707 cm^2), D is the diffusion coefficient in cm^2/s, v is the scan rate in V/s, and C is the concentration of redox species in mol/cm^3.
The reduction potential of 2,6-N-TSAQ is-0.62 V vs. SHE in 1M NaCl, which is 120 mV and 170 mV lower than that of 2,6-O-DPSAQ and 2,6-DPSAQ in 1M NaCl, respectively. The low redox potential of 2,6-N-TSAQ is attributed to the strong electron donating effect of N-alkyl group. It contributes to form a high working voltage and high power density flow battery. […] The ammonium cation, however, sacrifices the redox potential of 2,6-N-TSAQ as the local pH is always lower than the pKa2 of 9,10-dihydroxyanthracene, which is also observed in the reported 9,10-anthraquinone-2,7-disulfonic diammonium salt.

[3] = Storage in 1 M NaCl at 65° C. for 8 days, 1H NMR; assay type: physicochemical
Description: For comparison, the long-term cycling of the 0.1 M 2,6-N-TSAQ/ferrocyanide cell was operated at neutral condition (1 M sodium chloride) but, otherwise, the same conditions. The initial volumetric capacity was 4.774 Ah L^−1, which is similar to that at pH 14. After 2.84 days cycling, the discharge capacity dropped to 4.412 Ah/L, corresponding to a capacity fade rate of 2.6%/day, which is around 2 orders magnitude higher than that at pH 14. And the coulombic efficiency is around 99.8% over the whole cycling process, which is slightly lower than that at pH 14. […] To investigate the origin of instability of 2,6-N-TSAQ at neutral condition, both oxidized and reduced forms of 2,6-N-TSAQ were stored in 1 M NaCl at 65° C. for 8 days.

[4] = Long-term cycling of 0.1 M 2,6-N-TSAQ/ferrocyanide flow cell
Experimental: Flow battery experiments were performed with cell and hardware from Fuel Cell Tech. (Albuquerque, NM). Pyrosealed POCO graphite flow plates with serpentine flow designs were used for both electrodes. Each electrode comprised a single 5 cm^2 geometric surface area sheet of AvCarb carbon electrode. For 2,6-N-TSAQ/ferrocyanide full cell tests, a Nafion™ 212 membrane was used to serve as the ion-selective membrane. The Nafion membrane was soaked in the supporting electrolyte (sodium hydroxide or sodium chloride) for at least 24 hours before use. Viton sheets were used to cover the outer portion space between the electrodes. Torque used for cell assembly was 60 lb-in (6.78 Nm) on each of eight 1/4-28 bolts. The electrolytes were fed into the cell through fluorinated ethylene propylene (FEP) tubing at a rate of 60 mL/min, controlled by Cole-Parmer 6 Masterflex L/S peristaltic pumps. The cell was run inside a glove box (1 ppm O2). Cell polarization measurements and charge-discharge cycling were conducted using a Biologic BCS-815 battery cycler. […] The polarization curves were obtained by charging to a desired state of charge first and then polarizing via linear sweep voltammetry at a rate of 100 mV s^−1.
Long-term cycling testing of 0.1 M 2,6-N-TSAQ/ferrocyanide was performed with the same cell. The cell was cycled at 40 mA cm^2 with potential holds at 1.4 V for charging and 0.6 V for discharging until the current density dropped to 2 mA cm^−2. The initial discharge capacity was 4.764 Ah L^−1, corresponding to a capacity utilization of 88.9% of the theoretical value. However, the OCV at different SOC values in FIG. 8 (a) and the typical voltage profile in FIG. 9 (c) indicates it accesses the complete capacity of 2,6-N-TSAQ under such conditions. The differences between the actual capacity and the theoretical value could come from non-redox active impurities such as water or salts in the sample. […] The average coulombic efficiency was determined to be above 99.9%. […]

[5] = water, read-out: water solubility

solubility [1, 5] [mM]	reduction potential ([2]; 1M NaCl (unbuffered)) [V vs. SHE]	reduction potential lower than that of 2,6-DPSAQ ([2]; difference versus 2,6-DPSAQ) [mV]	reduction potential lower than that of 2,6-O-DPSAQ ([2]; difference versus 2,6-O-DPSAQ) [mV]	solubility ([1]; water, with ammonium ion exchange, read-out: solubility) [mM]	decomposition by 1H NMR, oxidized state ([3]; oxidized form)	decomposition by 1H NMR, reduced state ([3]; reduced form)	capacity fade rate ([4]; neutral condition (1 M sodium chloride), 0.1 M, 2.84 days cycling) [%/day]	cycle-denominated capacity fade rate ([4]; pH 14, 0.1 M, full SOC range cycling) [%/cycle]	temporal capacity fade rate ([4]; pH 14, 0.1 M, full SOC range cycling, 9 days) [%/day]	solubility ([1]; 1 M lithium chloride, saline or isotonic, 1 M lithium chloride, read-out: solubility) [mM]	solubility ([1]; 1 M sodium chloride, saline or isotonic, 1 M sodium chloride, read-out: solubility) [mM]	solubility ([1]; deionized water, water, deionized water, read-out: solubility) [mM]	SMILES
300	–	–	–	–	–	–	–	–	–	–	–	–	O=C1c2ccc(CCCS(=O)(=O)[O-])cc2C(=O)c2ccc(CCCS(=O)(=O)[O-])cc21.[Na+].[Na+] [2,6-DPSAQ, sodium 3,3′-(9,10-anthraquinone-2,6-diyl)bis(propane-1-sulfonate)]
450	−0.62	170	120	650	no apparent decomposition	a large quantity of decomposition	2.6	0.00024	0.025	–	–	–	O=C1c2ccc(N(CCCS(=O)(=O)O)CCCS(=O)(=O)O)cc2C(=O)c2ccc(N(CCCS(=O)(=O)O)CCCS(=O)(=O)O)cc21 [2,6-N-TSAQ, sodium 3,3′,3″,3′″-((9,10-anthraquinone-2,6-diyl)bis(azanetriyl))tetrakis(propane-1-sulfonate)]
–	–	–	–	–	–	–	–	–	–	10	< 5	10	O=C1c2ccc(OCCCS(=O)(=O)[O-])cc2C(=O)c2ccc(OCCCS(=O)(=O)[O-])cc21.[Na+].[Na+] [2,6-O-DPSAQ, sodium 3,3′-((9,10-anthraquinone-2,6-diyl)bis(oxy))bis(propane-1-sulfonate)]
